{"source": "patent US20250368608A1", "about": "“SELECTIVE HDAC6 INHIBITOR” (ROYAL COLLEGE OF SURGEONS IN IRELAND, priority 2021, published 2025)", "note": "pIC50: −log10 of the molar value."}
{"test_system": "JJN3 cell line", "experiment": "Apoptosis assay using JJN3 cell line (annexin V/PI)", "format": "cell-based", "settings": "Homo sapiens, JJN-3; JJN3 cell line, 24 h of treatment", "method": "(§1) Apoptosis was assessed by Annexin V/propidium iodide (Biolegend, 640906, Sigma P4170) staining using LSRII Biosciences, Facscanto. Cell viability was detected by CellTiter-Glo® (My Bio, G3582) according to the manufacture's protocol. Mitochondrial membrane potential was measured by adding Tetramethylrhodamine, ethyl ester (TMRE) (Biosciences, T669) at 20 nM for 30 minutes at 37° C. and assessed by flow cytometry with FACS CANTO II. […]"}
{"smiles": "O=C(CSC1=N[C@@H]2CCCC[C@H]2N1)N1CCOCC1", "note": "(racemic) [TTC-01, (±)-trans-2-((2-morpholino-2-oxoethyl)thio)-3a,4,5,6,7,7a-hexahydro-1H-benzo[d]imidazol-3-ium chloride]", "pIC50": "< 5.00"}
{"smiles": "O=C(CSC1=N[C@@H]2CCCC[C@H]2N1)N1CCCCC1", "note": "(racemic) [TTC-03, (±)-trans-2-((2-oxo-2-(piperidin-1-yl)ethyl)thio)-3a,4,5,6,7,7a-hexahydro-1H-benzo[d]imidazol-3-ium chloride]", "pIC50": "< 5.00"}
{"smiles": "CCN(CC)C(=O)CSC1=N[C@@H]2CCCC[C@H]2N1", "note": "(racemic) [TTC-04, (±)-trans-2-((2-(diethylamino)-2-oxoethyl)thio)-3a,4,5,6,7,7a-hexahydro-1H-benzo[d]imidazol-3-ium chloride]", "pIC50": "< 5.00"}
{"smiles": "O=C(CSC1=N[C@@H]2CCCC[C@H]2N1)N1CCSCC1", "note": "(racemic) [TTC-05, (±)-trans-2-((2-oxo-2-thiomorpholinoethyl)thio)-3a,4,5,6,7,7a-hexahydro-1H-benzo[d]imidazol-3-ium chloride]", "pIC50": "> 5.00"}
{"smiles": "CS(=O)(=O)N1CCN(C(=O)CSC2=N[C@@H]3CCCC[C@H]3N2)CC1", "note": "(racemic) [TTC-06, (±)-trans-2-((2-(4-(methylsulfonyl)piperazin-1-yl)-2-oxoethyl)thio)-3a,4,5,6,7,7a-hexahydro-1H-benzo[d]imidazol-3-ium chloride]", "pIC50": "< 5.00"}
{"smiles": "O=C(CSC1=N[C@@H]2CCCC[C@H]2N1)N1CCN(c2ccccc2)CC1", "note": "(racemic) [TTC-07, (±)-trans-2-((2-oxo-2-(4-phenylpiperazin-1-yl)ethyl)thio)-3a,4,5,6,7,7a-hexahydro-1H-benzo[d]imidazol-3-ium chloride]", "pIC50": "< 5.00"}
{"smiles": "CC(C)(C)OC(=O)N1CCN(C(=O)CSC2=N[C@@H]3CCCC[C@H]3N2)CC1", "note": "(racemic) [TTC-08, (±)-trans-2-((2-(4-(tert-butoxycarbonyl)piperazin-1-yl)-2-oxoethyl)thio)-3a,4,5,6,7,7a-hexahydro-1H-benzo[d]imidazol-3-ium chloride]", "pIC50": "< 5.00"}
{"smiles": "O=C(CSC1=N[C@@H]2CCCC[C@H]2N1)N1CCC(O)CC1", "note": "(racemic) [TTC-15, (±)-trans-2-((2-(4-hydroxypiperidin-1-yl)-2-oxoethyl)thio)-3a,4,5,6,7,7a-hexahydro-1H-benzo[d]imidazol-3-ium chloride]", "pIC50": "< 5.00"}
{"smiles": "O=C(O)C1CCN(C(=O)CSC2=N[C@@H]3CCCC[C@H]3N2)CC1", "note": "(racemic) [TTC-16, (±)-trans-2-((2-(4-carboxypiperidin-1-yl)-2-oxoethyl)thio)-3a,4,5,6,7,7a-hexahydro-1H-benzo[d]imidazol-3-ium chloride]", "pIC50": "< 5.00"}
{"smiles": "O=C1CN(C(=O)CSC2=N[C@@H]3CCCC[C@H]3N2)CCN1", "note": "(racemic) [TTC-17, (±)-trans-2-((2-oxo-2-(3-oxopiperazin-1-yl)ethyl)thio)-3a,4,5,6,7,7a-hexahydro-1H-benzo[d]imidazol-3-ium chloride]", "pIC50": "< 5.00"}
{"smiles": "O=C(CSC1=N[C@@H]2CCCC[C@H]2N1)Nc1ccccc1", "note": "(racemic) [TTC-18, (±)-trans-2-((2-oxo-2-(phenylamino)ethyl)thio)-3a,4,5,6,7,7a-hexahydro-1H-benzo[d]imidazol-3-ium chloride]", "pIC50": "< 5.00"}
{"smiles": "CCC1CCN(C(=O)CSC2=N[C@@H]3CCCC[C@H]3N2)CC1", "note": "(racemic) [TTC-28, (±)-trans-2-((2-(4-ethylpiperidin-1-yl)-2-oxoethyl)thio)-3a,4,5,6,7,7a-hexahydro-1H-benzo[d]imidazol-3-ium chloride]", "pIC50": "< 5.00"}
{"smiles": "CCCC1CCN(C(=O)CSC2=N[C@@H]3CCCC[C@H]3N2)CC1", "note": "(racemic) [TTC-29, (±)-trans-2-((2-oxo-2-(4-propylpiperidin-1-yl)ethyl)thio)-3a,4,5,6,7,7a-hexahydro-1H-benzo[d]imidazol-3-ium chloride]", "pIC50": "> 5.00"}
{"smiles": "CC(C)C1CCN(C(=O)CSC2=N[C@@H]3CCCC[C@H]3N2)CC1", "note": "(racemic) [TTC-30, (±)-trans-2-((2-(4-isopropylpiperidin-1-yl)-2-oxoethyl)thio)-3a,4,5,6,7,7a-hexahydro-1H-benzo[d]imidazol-3-ium chloride]", "pIC50": "< 5.00"}
{"smiles": "CC(C)(C)C1CCN(C(=O)CSC2=N[C@@H]3CCCC[C@H]3N2)CC1", "note": "(racemic) [TTC-31, (±)-trans-2-((2-(4-(tert-butyl)piperidin-1-yl)-2-oxoethyl)thio)-3a,4,5,6,7,7a-hexahydro-1H-benzo[d]imidazol-3-ium chloride]", "pIC50": "> 5.00"}
{"smiles": "O=C(CSC1=N[C@@H]2CCCC[C@H]2N1)N1CCC(C(F)(F)F)CC1", "note": "(racemic) [TTC-32, (±)-trans-2-((2-oxo-2-(4-(trifluoromethyl)piperidin-1-yl)ethyl)thio)-3a,4,5,6,7,7a-hexahydro-1H-benzo[d]imidazol-3-ium chloride]", "pIC50": "> 5.00"}
{"smiles": "O=C(CSC1=N[C@@H]2CCCC[C@H]2N1)N1CCC(c2ccccc2)CC1", "note": "(racemic) [TTC-33, (±)-trans-2-((2-oxo-2-(4-phenylpiperidin-1-yl)ethyl)thio)-3a,4,5,6,7,7a-hexahydro-1H-benzo[d]imidazol-3-ium chloride]", "pIC50": "< 5.00"}
{"smiles": "CC(=O)NCC1CCN(C(=O)CSC2=N[C@@H]3CCCC[C@H]3N2)CC1", "note": "(racemic) [TTC-35, (±)-trans-2-((2-(4-(acetamidomethyl)piperidin-1-yl)-2-oxoethyl)thio)-3a,4,5,6,7,7a-hexahydro-1H-benzo[d]imidazol-3-ium chloride]", "pIC50": "> 5.00"}
{"smiles": "Cc1ccccc1N1CCN(C(=O)CSC2=N[C@@H]3CCCC[C@H]3N2)CC1", "note": "(racemic) [TTC-36, (±)-trans-2-((2-oxo-2-(4-(o-tolyl)piperazin-1-yl)ethyl)thio)-3a,4,5,6,7,7a-hexahydro-1H-benzo[d]imidazol-3-ium chloride]", "pIC50": "< 5.00"}
{"smiles": "Cc1ccc(N2CCN(C(=O)CSC3=N[C@@H]4CCCC[C@H]4N3)CC2)cc1", "note": "(racemic) [TTC-38, (±)-trans-2-((2-oxo-2-(4-(p-tolyl)piperazin-1-yl)ethyl)thio)-3a,4,5,6,7,7a-hexahydro-1H-benzo[d]imidazol-3-ium chloride]", "pIC50": "< 5.00"}
{"smiles": "CC(=O)N1CCN(C(=O)CSC2=N[C@@H]3CCCC[C@H]3N2)CC1", "note": "(racemic) [TTC-40, (±)-trans-2-((-(4-acetylpiperazin-1-yl)-2-oxoethyl)thio)-3a,4,5,6,7,7a-hexahydro-1H-benzo[d]imidazol-3-ium chloride]", "pIC50": "< 5.00"}
{"smiles": "O=C(CSC1=N[C@@H]2CCCC[C@H]2N1)N1CCN(C(=O)c2ccccc2)CC1", "note": "(racemic) [TTC-41, (±)-trans-2-((2-(4-benzoylpiperazin-1-yl)-2-oxoethyl)thio)-3a,4,5,6,7,7a-hexahydro-1H-benzo[d]imidazol-3-ium chloride]", "pIC50": "< 5.00"}
{"smiles": "O=C(CSC1=N[C@@H]2CCCC[C@@H]2N1)N1CCOCC1", "note": "[TTC-02, cis-2-((2-morpholino-2-oxoethyl)thio)-3a,4,5,6,7,7a-hexahydro-1H-benzo[d]imidazol-3-ium chloride]", "pIC50": "< 5.00"}
{"smiles": "O=C(CSC1=NCCN1)N1CCOCC1", "note": "[TTC-09, 2-((2-morpholino-2-oxoethyl)thio)-4,5-dihydro-1H-imidazol-3-ium chloride]", "pIC50": "< 5.00"}
{"smiles": "O=C(CSC1=N[C@@H]2CCCC[C@@H]2N1)N1CCCCC1", "note": "[TTC-10, cis-2-((2-oxo-2-(piperidin-1-yl)ethyl)thio)-3a,4,5,6,7,7a-hexahydro-1H-benzo[d]imidazol-3-ium chloride]", "pIC50": "< 5.00"}
{"test_system": "JJN3 cell line", "experiment": "Apoptosis assay using JJN3 cell line (annexin V/PI)", "format": "cell-based", "settings": "JJN3 cells, 24 hr treatment", "method": "as §1"}
{"smiles": "O=C(CSC1=N[C@@H]2CCCC[C@H]2N1)N1CCOCC1", "note": "(racemic) [TTC-01, (±)-trans-2-((2-morpholino-2-oxoethyl)thio)-3a,4,5,6,7,7a-hexahydro-1H-benzo[d]imidazol-3-ium chloride]", "cell death by annexin V/PI": "induces cell death"}
{"smiles": "O=C(CSC1=N[C@@H]2CCCC[C@@H]2N1)N1CCOCC1", "note": "[TTC-02, cis-2-((2-morpholino-2-oxoethyl)thio)-3a,4,5,6,7,7a-hexahydro-1H-benzo[d]imidazol-3-ium chloride]", "cell death by annexin V/PI": "does not induce cell death"}
